Assay results: patent publication US20230278998A1, “Compound containing structure of a five-membered heteroaromatic ring, pharmaceutical compositions thereof and applications thereof” (280 Bio, Inc., priority 2022, published 2023)

Columns and labels:
PARG (389-976) = PARG (389-976) (Homo sapiens (Human), UniProt Q86W56); experiment: PARG enzyme inhibition assay (TR-FRET); type: biochemical
Procedure: PARG Enzyme Inhibition Assay
PARG in vitro assays were conducted in standard 384-well plates in a total volume of 15 μL.

PARG = PARG (Homo sapiens (Human), UniProt Q86W56); experiment: PARG cell inhibition assay (PAR staining after H2O2); type: cell-based; conditions: UWB1.289 cells; value in brackets
Chain of PARG (Q86W56 whole entry): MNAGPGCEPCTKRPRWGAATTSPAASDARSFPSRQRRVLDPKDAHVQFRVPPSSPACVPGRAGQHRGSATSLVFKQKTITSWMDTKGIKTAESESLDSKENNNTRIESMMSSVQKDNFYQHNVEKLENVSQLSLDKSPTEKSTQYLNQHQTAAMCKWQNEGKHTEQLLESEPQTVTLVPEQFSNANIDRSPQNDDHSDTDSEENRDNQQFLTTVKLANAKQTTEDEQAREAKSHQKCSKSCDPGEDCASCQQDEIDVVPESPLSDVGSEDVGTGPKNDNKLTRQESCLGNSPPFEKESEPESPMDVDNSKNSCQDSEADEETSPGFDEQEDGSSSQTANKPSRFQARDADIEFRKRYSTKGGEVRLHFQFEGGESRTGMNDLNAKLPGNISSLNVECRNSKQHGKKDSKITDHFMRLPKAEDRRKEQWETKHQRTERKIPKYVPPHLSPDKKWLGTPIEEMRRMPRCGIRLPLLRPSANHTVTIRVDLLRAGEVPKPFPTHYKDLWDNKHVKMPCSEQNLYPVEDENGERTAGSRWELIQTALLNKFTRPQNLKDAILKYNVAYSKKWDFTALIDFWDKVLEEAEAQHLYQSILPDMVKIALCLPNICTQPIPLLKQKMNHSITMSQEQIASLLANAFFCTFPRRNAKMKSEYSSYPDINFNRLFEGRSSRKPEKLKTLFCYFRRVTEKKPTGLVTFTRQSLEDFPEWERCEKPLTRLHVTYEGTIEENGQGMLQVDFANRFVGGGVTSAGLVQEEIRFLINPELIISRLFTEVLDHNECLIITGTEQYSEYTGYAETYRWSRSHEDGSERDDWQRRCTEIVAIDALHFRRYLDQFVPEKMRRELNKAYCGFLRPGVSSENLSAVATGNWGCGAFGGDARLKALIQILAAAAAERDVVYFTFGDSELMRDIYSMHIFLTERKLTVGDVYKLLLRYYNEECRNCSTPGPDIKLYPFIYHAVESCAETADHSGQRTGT
Procedure: PARG Cell Inhibition Assay
UWB1.289 cells were used and the medium was 50% MEBM+50% 1640+3% FBS+1×PS. The cells were cultured according to ATCC standard operation and the cells were assayed in exponential growth phase for the experiment. Re-suspend cell in medium to a proper concentration, only cells with viability greater than 90% are used for assays.
Seed cells UWB1.289 in each culture medium, incubate overnight at 37° C., 5% CO2.
Test compounds was diluted with DMSO in gradient. Add test compound in cell plate, incubate at 37° C.
Add compounds and H2O2 mixture into cell plate, incubate at 37° C. Use 100 nM PDD00017273 as positive control.
Remove solution and recovery cell, incubate at 37° C.
Remove solution in the plate and add Cold-MeOH, incubate at −20° C.
Add blocking buffer into cell plate, incubate at RT.
Add PAR mAb, incubate at 4° C. overnight.
Add secondary antibody and DNA stain DRAQ5, incubate at RT.
Wash 3 times with PBST and 2 times with PBS. Turn plate upside down and centrifuge 1000 rpm 1 min.
Scan plate using LI-COR for best result.
Calculate the % inhibition according to the following formula: % inhibition=(compound signal value−negative control signal average)/(positive control signal average−negative control signal average)×100. Use the formula Y=Bottom+(Top−Bottom)/(1+10^((Log IC50−X)*HillSlope)) to fit the curve to obtain the IC50 values.

Chain of PARG (389-976) (Q86W56 389-976): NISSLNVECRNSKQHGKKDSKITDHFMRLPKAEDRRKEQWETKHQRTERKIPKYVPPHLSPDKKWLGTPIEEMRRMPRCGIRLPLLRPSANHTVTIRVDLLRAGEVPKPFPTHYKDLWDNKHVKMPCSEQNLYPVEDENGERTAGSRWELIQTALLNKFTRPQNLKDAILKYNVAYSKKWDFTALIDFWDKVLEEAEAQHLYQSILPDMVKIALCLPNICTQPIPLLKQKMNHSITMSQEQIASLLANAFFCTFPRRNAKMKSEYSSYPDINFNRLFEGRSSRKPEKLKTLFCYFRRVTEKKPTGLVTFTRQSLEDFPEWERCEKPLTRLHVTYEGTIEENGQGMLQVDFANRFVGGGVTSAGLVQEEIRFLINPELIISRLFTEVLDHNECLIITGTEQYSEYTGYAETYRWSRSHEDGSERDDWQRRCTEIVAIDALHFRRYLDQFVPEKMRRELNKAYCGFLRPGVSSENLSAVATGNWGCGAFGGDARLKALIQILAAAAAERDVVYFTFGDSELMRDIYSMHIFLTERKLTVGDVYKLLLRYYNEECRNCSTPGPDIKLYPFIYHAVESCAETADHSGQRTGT

Structure (SMILES)	IC50 (PARG) [nM]	IC50 (PARG (389-976); Table 2, class symbol) [nM]	IC50 (PARG (389-976); Table 2, value in brackets) [nM]	IC50 (PARG (389-976); Table 3, class symbol) [nM]	IC50 (PARG (389-976); Table 1, class symbol) [nM]	IC50 (PARG (389-976); Table 1, value in brackets) [nM]
CC(C)C(=O)N1CCN(c2cc(S(=O)(=O)NC3(C)CC3)cc3c(-c4nnc(C(F)F)s4)n[nH]c23)CC1 [Compound 3]	9.6	–	–	–	< 100	1
Cc1cc(Cn2c(=O)n(Cc3cnc(C)s3)c(=O)c3cc(S(=O)(=O)NC4(C)CC4)ccc32)n(C)n1 [PDD00017273, reference compound]	13.4	–	–	< 100	–	–
Cc1nc(C)c(Cn2nc(-c3nnc(C(F)F)s3)c3cc(S(=O)(=O)NC4(C)CC4)ccc32)s1 [compound 1, reference compound]	14.7	–	–	–	–	1.9

Further lines, with some results ahead:

IC50 (PARG) [nM]	IC50 (PARG (389-976); Table 2, class symbol) [nM]	IC50 (PARG (389-976); Table 2, value in brackets) [nM]	IC50 (PARG (389-976); Table 3, class symbol) [nM]	Structure (SMILES)	IC50 (PARG (389-976); Table 1, class symbol) [nM]	IC50 (PARG (389-976); Table 1, value in brackets) [nM]
3.1	–	–	–	CC(C)C(=O)N1CCN(c2cc(S(=O)(=O)NC3(C)CC3)cc3c(-c4nnc(C(F)F)s4)nn(C)c23)CC1 [Compound 5]	< 100	0.5
3.6	< 100	0.6	–	CC(C)C(=O)N1CCN(c2cc(S(=O)(=O)NC3(C#N)CC3)cc3c(-c4nnc(C(F)F)s4)nn(C)c23)CC1 [Compound 17]	–	–
–	–	–	< 100	CCN(C)C(=O)N1CCN(c2cc(S(=O)(=O)NC3(C#N)CC3)cc3c(-c4nnc(C(F)F)s4)nn(C)c23)CC1 [Compound 145]	–	–
–	–	–	< 100	CC(C)CC(=O)N1CCN(c2cc(S(=O)(=O)NC3(C#N)CC3)cc3c(-c4nnc(C(F)F)s4)nn(C)c23)CC1 [Compound 146]	–	–
